“Also recorded” adds a separate entry of the source.

One test has as its system CREB. Put plainly: CREB Ser133 phosphorylation in HMVE cells, Western blot. The format is cell-based, human. Particulars: HMVE cells. Here is the method:
(§1) Western blot analysis. Endothelial cells were cultured on 35 mm dishes to near confluence, starved for 24 h in serum free medium and stimulated as indicated. Wortmannin ([…]), LY294002 ([…]), PD98059 (10-25 μM) or GF109203X (2.5-5 μM) were added 1-3 h before stimulation, where indicated. DMSO, into which the inhibitors were dissolved, was used as a control. After the stimulation, the cells were lysed in lysis buffer (50 mM HEPES, pH 7.5, 150 mM NaCl, 10 mM EDTA, 100 mM NaF, 1% TritonX-100 supplemented with 2 mM Na3VO4, 0.5 mM PMSF, 100 U/ml approtinin and 10 μg/ml leupeptin). Clarified lysates were separated by SDS-PAGE, transferred to nitrocellulose and immunoblotted using the phosphospecific antibodies for Akt-Ser473, Akt-Thr308, p42/44 MAPK-Thr202/Tyr204 or CREB-Ser133. The bound antibodies were detected using horseradish peroxidase conjugated secondary antibodies and enhanced chemiluminescence detection system. The blots were stripped and reprobed with antibodies against Akt, MAPK or CREB for quantification by reading the optical densities of the signals with Multi-Analyst 2.0.1 program (Bio-Rad).
(§2) The p42/p44 MAPK activation was detected by Western blotting using phospho-Thr202/Tyr204-MAPK specific antibodies and CREB phosphorylation using phospho-Ser133 specific antibodies. The growth factor concentrations used were: VEGF 10 ng/ml, VEGF-C 100 ng/ml and VEGF-C156S 500 ng/ml. […] Effects of inhibition of protein kinase C by GF109203X, MEK1 by PD98059 and PI-3 kinase by LY294002 on p42/p44 MAPK Thr202/Tyr204 phosphorylation, CREB Ser133 phosphorylation and Akt Ser473 phosphorylation in HMVE cells. The growth factor concentrations used were: VEGF 1 ng/ml, VEGF-C 10 ng/ml and VEGF-C156S 500 ng/ml
(A western blot detects proteins with antibodies after separation by electrophoresis.)

A further test has as its system p42/p44 MAPK. Put plainly: p42/p44 MAPK Thr202/Tyr204 phosphorylation in HMVE cells, Western blot. Type of test: cell-based, human. Particulars: minimum growth factor concentrations giving maximal activation. Here is the method: as §1, §2
In a further test the target is mVEGFR-2 (Mus musculus, UniProt P35918). To be noted: mVEGFR-2, monovalent; reference: Baldwin et al. 2001; cited from earlier work.
The target in another test is mVEGFR-3 (Mus musculus, UniProt P35917). To be noted: reference: Baldwin et al. 2001; cited from earlier work.
Chain of mVEGFR-3 (P35917 25-1363): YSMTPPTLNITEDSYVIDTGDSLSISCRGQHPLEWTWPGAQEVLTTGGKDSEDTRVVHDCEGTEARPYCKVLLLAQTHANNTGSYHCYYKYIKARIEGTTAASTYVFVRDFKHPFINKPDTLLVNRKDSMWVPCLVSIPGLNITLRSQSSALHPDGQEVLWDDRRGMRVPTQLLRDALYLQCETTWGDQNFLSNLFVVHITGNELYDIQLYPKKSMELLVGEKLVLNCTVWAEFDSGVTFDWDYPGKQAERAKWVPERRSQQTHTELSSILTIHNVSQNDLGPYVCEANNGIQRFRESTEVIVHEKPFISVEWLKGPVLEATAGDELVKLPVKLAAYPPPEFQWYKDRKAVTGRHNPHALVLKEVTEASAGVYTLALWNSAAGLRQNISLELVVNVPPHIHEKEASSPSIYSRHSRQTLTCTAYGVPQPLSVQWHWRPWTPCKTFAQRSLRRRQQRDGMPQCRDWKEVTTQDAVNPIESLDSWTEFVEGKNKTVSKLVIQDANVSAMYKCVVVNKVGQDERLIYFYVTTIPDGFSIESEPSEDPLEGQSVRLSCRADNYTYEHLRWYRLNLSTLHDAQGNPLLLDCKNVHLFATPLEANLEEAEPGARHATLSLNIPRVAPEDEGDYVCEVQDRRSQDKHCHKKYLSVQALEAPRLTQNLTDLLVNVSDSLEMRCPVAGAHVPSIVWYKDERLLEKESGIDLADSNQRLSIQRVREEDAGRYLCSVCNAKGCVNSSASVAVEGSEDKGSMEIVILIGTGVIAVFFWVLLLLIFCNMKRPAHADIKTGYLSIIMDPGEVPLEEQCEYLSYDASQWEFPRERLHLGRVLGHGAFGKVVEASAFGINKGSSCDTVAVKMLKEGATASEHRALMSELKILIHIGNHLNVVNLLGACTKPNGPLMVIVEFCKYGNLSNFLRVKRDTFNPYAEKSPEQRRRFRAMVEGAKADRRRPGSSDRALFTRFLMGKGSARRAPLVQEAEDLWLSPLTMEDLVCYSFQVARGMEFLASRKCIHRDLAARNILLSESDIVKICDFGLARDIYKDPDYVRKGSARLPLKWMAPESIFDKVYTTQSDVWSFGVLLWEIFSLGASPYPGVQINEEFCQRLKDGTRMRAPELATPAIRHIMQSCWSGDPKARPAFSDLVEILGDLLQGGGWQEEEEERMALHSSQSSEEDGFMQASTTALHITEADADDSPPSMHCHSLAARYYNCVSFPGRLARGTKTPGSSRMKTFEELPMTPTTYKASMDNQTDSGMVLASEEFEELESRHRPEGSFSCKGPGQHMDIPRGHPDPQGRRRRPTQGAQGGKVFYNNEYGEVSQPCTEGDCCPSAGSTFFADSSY

Chain of mVEGFR-2 (P35918 20-1345): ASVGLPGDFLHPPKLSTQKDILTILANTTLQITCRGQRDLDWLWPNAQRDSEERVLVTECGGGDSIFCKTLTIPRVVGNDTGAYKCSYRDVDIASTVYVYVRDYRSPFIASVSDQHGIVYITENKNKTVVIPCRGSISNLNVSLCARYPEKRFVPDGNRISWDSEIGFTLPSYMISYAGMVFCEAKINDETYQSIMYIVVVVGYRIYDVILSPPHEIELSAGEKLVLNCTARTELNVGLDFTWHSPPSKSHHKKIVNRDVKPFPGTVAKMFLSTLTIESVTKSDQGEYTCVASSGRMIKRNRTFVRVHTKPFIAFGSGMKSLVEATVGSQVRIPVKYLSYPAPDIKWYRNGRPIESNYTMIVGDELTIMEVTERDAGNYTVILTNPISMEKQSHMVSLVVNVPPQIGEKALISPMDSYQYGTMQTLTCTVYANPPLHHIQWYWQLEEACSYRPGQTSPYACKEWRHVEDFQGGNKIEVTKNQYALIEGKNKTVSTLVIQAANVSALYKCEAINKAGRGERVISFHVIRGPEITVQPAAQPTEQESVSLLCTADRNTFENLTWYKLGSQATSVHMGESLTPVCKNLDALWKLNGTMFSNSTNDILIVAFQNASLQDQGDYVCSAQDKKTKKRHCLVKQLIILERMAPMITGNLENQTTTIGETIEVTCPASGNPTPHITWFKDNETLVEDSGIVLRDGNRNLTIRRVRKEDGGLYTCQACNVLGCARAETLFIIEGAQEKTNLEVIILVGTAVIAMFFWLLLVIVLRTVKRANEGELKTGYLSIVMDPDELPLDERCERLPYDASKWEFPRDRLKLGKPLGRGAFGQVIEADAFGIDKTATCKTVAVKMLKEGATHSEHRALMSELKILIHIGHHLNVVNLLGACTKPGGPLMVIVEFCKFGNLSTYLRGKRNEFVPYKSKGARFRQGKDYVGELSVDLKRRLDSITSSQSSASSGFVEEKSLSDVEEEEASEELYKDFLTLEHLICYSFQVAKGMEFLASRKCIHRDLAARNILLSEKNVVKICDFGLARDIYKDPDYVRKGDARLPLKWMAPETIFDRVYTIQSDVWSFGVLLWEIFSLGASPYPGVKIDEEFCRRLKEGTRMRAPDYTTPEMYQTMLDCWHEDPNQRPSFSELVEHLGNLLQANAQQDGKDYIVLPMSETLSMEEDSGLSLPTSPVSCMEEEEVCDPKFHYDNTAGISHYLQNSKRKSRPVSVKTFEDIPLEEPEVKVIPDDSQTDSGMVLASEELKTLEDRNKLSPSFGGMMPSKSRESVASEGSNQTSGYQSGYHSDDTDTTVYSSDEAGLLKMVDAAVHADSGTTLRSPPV

Regarding `CN(C)CCCn1cc(C2=C(c3c[nH]c4ccccc34)C(=O)NC2=O)c2ccccc21` [GF109203X, Bisindolylmaleimide I], in the test on CREB, the “effect of inhibitor on VEGF induced CREB phosphorylation” value is on record as “completely blocked” and the “effect of inhibitor on VEGF-C induced CREB phosphorylation” value is on record as “completely blocked”. For the same molecule, the “effect on p42/44 MAPK phosphorylation induced by VEGF, VEGF-C or VEGF-C156S” value in the test on p42/p44 MAPK is reported as “completely blocked”.
Take `COc1cccc(-c2cc(=O)c3ccccc3o2)c1N` [PD98059]: in the test on CREB, the “effect of inhibitor on VEGF induced CREB phosphorylation” value is “but not VEGF induced CREB phosphorylation; also recorded: did not inhibit VEGF induced CREB phosphorylation” and the “effect of inhibitor on VEGF-C induced CREB phosphorylation” value was “inhibited VEGFC; also recorded: decreased phosphorylation of CREB upon VEGFC stimulation”.
In the case of `N#CC(=C(/N)Sc1ccccc1N)/C(C#N)=C(\N)Sc1ccccc1N` [U0126], in the test on CREB, the “effect of inhibitor on VEGF induced CREB phosphorylation” value was “but not VEGF induced CREB phosphorylation” and the “effect of inhibitor on VEGF-C induced CREB phosphorylation” value is on record as “inhibited VEGFC”.

B1: mVEGF-D: mature form of mouse VEGF-D, data from Baldwin et al. 2001 (protein, UniProt P97946 94-210, looked up)
Vascular endothelial growth …: FAATFYDTETLKVIDEEWQRTQCSPRETCVEVASELGKTTNTFFKPPCVNVFRCGGCCNEEGVMCMNTSTSYISKQLFEISVPLTSVPELVPVKIANHTGCKCLPTGPRHPYSIIRR
Take B1: in the test with mVEGFR-2, the KD result was “no binding”, the Ka entry is on record as “no binding” and the Kd entry is given as “no binding”. Also, the Ka in the test with mVEGFR-3 was 8000 M⁻¹ s⁻¹.

These data come from patent publication US20080317723A1, “LYMPHATIC ENDOTHELIAL CELLS MATERIALS AND METHODS” (VEGENICS LIMITED, priority 2001, published 2008).
